Settings: non-polar organic solvents such as hexane toluene and ethylacetate

- solubility in non-polar organic solvents: very soluble
Structure (SMILES): C#CCN[C@@H]1CCc2ccccc21 [Rasagiline base]

From US20120100189A1 (Teva Pharmaceutical Industries Ltd., priority 2009, published 2012)
